Laboratory results published in patent publication US9988405B2, “O-phenyl chalcone compounds and uses thereof” (Neopanora Bio-technology (Zhuhai) Ltd., priority 2014, dated 2018).

Tests used:
[1] = tested on: doxorubicin resistant breast cancer cell MCF-7/DOX; assay: SRB anti-proliferative assay, drug-resistant MCF-7/DOX; format: cell-based; conditions: Homo sapiens, MCF7-DOX; doxorubicin resistant MCF-7/DOX, SRB; read-out: Anti-proliferative IC50, MCF-7/DOX
Experimental: (§1) The present example evaluated the anti-tumor activity of the molecules provided by the present invention. The present example mainly used a method with SRB (sulforhodamine B) dying, in which proteins in the cell were stained with SRB dye to determine protein content in the cell so as to characterize cell growth density. Firstly, the test compound was formulated into a stock solution (10 mM), which was stored at 4° C. in a refrigerator. Prior to beginning the assay, the stock solution was diluted with DMSO into a series of different concentrations. The required concentrations were obtained by diluting with complete growth medium. Well growing cells were seeded in a 96-well plate (5000 cells/well, 100 uL) and cultured in an incubator at 37° C., 5% CO2, and 90% RH. 24 h later, the prepared compound solution (100 μL) was slowly added to cell solution in the 96-well plate, and the well with DMSO (final concentration 0.5%) instead of the drug was used as a drug free control. The plate was incubated for 48 h. In addition, a day 0 plate that was drug free was directly detected after cell seeded in the plate for 24 h. The 96-well plate was taken out and added with trichloroacetic acid (50 μL, final concentration 10%). The plate was incubated at 4° C. for 1 h to fix the cells.
(§2) The plate was washed with ultrapure water and air-dried. The plate was then stained with SRB dye (0.4% in 1% acetic acid, 100 μL) for 30 min at room temperature. The plate was then washed with 1% acetic acid and then air-dried. A Tris base solution (100 μL, 10 mM, pH10.4) was added, after which the plate was gently shaken for 1 h on an orbital shaker to ensure that the dyes were completed dissolved. The optical density (OD) was recorded on a TECAN Infinite M200 Pro multimode reader at 515 nm. The cell growth (% of control)=(OD value of wells added with drug−mean OD value of Day 0 plate)/(OD value of DMSO drug-free control well−mean OD value of Day 0 plate)*100.
(§3) We also evaluated the anti-proliferation activities of selected compounds against drug-resistant cancer cell lines.

[2] = tested on: human nasopharyngeal carcinoma cells CNE2; assay: SRB anti-proliferative assay, CNE2; format: cell-based; conditions: CNE-2, CNE2, SRB, 48 h, read-out: Anti-proliferative IC50, CNE2
Experimental: as §1, §2

[3] = tested on: Paclitaxel-resistant human ovarian carcinoma cell A2780/TAX; assay: SRB anti-proliferative assay, drug-resistant A2780/TAX; format: cell-based; conditions: paclitaxel-resistant A2780/TAX, SRB, read-out: Anti-proliferative IC50, A2780/TAX
Experimental: as §1, §2, §3

[4] = tested on: human colon cancer cells HCT8; assay: SRB anti-proliferative assay, HCT-8; format: cell-based; conditions: HCT-8, SRB, 48 h, read-out: Anti-proliferative IC50, HCT-8
Experimental: as §1, §2

[5] = tested on: human lung cancer cells A549; assay: SRB anti-proliferative assay, A549; format: cell-based; conditions: A549, SRB, 48 h, read-out: Anti-proliferative IC50, A549
Experimental: as §1, §2

[6] = tested on: A549 cells; assay: Microtubule re-assembly and mitosis on cellular level (confocal immunofluorescence); format: cell-based, human; conditions: 31 nM
Experimental: The method was primarily described here below.
A549 cells were seeded in a confocal culture dish at 8×10^4 cells/dish, grown for 24 h and divided into two groups. DMSO (0.5%) was added to one group followed by culture for 24 h. Compound 3 (31 nM) was added to the other group followed by culture for 24 h. Then cells of two dishes were fixed directly (37° C.). The remaining cells were placed in ice for 1 h, then at 37° C. for 0, 5, 10, and 15 min Cells were then fixed with paraformaldehyde (4%) for 15 min. Then cells were subject to permeabilization buffer for 15 min Primary β-tubulin mouse antibody was added and incubated at room temperature for 1 h.
3 on microtubules, microtubule re-assembly and mitosis: a, c-f, was the solvent control group (0.5% DMSO added), b, g-j was test group (31 nM compound no. 3 added), Scale bars: […].

[7] = tested on: tubulin; assay: Microtubule polymerization inhibition assay (tubulin polymerization assay kit); format: biochemical; conditions: 2 mg/ml tubulin, 37° C., fluorescence, 1 hour; read-out: IC50 on inhibition of microtubules polymerization
Experimental: Tubulin polymerization assay kit was used in the example, and the accompanying experimental protocol was followed. The specific method was described below.
Prior to the assay, the compounds were diluted with DMSO into a series of different concentrations and then diluted with sterile ultra-pure water into 10× solution of compounds. A 96-well plate was pre-warmed to 37° C. for 30 min in a multi-functional microplate reader. Reaction solution (2 mg/ml tubulin, 80 mM PIPES pH6.9, 2.0 mM MgCl2, 0.5 mM EGTA, 1.0 mM GTP, 15% glycerin) is prepared by materials needed in microtubule polymerization (tubulin buffer 85 uL, Glycerin buffer 150 μL, general buffer 205 μL, GTP ([…]) 4.4 μL). 5 μL solution of compound were added into the 96-well plate and incubated in a microplate reader for 1 min. DMSO was employed as a control. The plate was taken out and then reaction solution was immediately added ([…]). The plate was then immediately placed back into the reader and vibrated for 5 seconds before recording. The microplate reader was set at 37° C., and monitored in a kinetic model with emission wavelength at 450 nm and excitation wavelength at 360 nm. The plate was mixed and measured every minute and determined for 1 hour. A curve of fluorescence intensity v.s. time was obtained and the inhibition rate was calculated by the following formula. GraphPad Prism software was used to determine the IC50. Inhibition rate=[1−(average value of plateau of test curve−value of time 0)/(average value of plateau of DMSO curve−value of time 0)]*100.

[8] = tested on: incristine resistant human ileocecum carcinoma cell HCT-8/VCT; assay: SRB anti-proliferative assay, drug-resistant HCT-8/VCT; format: cell-based; conditions: HCT8/VCT, vincristine-resistant HCT-8/VCT, SRB, read-out: Anti-proliferative IC50, HCT-8/VCT
Experimental: as §1, §2, §3

[9] = tested on: human liver cancer cell HepG2; assay: SRB anti-proliferative assay, HepG2; format: cell-based; conditions: HepG2, SRB, 48 h, read-out: Anti-proliferative IC50, HepG2
Experimental: as §1, §2

[10] = tested on: human colon cancer cells SW480; assay: SRB anti-proliferative assay, SW480; format: cell-based; conditions: SW480, SRB, 48 h, read-out: Anti-proliferative IC50, SW480
Experimental: as §1, §2

[11] = tested on: human ovary cancer cells A2780; assay: SRB anti-proliferative assay, A2780; format: cell-based; conditions: A2780, SRB, 48 h, read-out: Anti-proliferative IC50, A2780
Experimental: as §1, §2

[12] = tested on: human breast cancer cells MCF7; assay: SRB anti-proliferative assay, MCF-7; format: cell-based; conditions: MCF7, MCF-7, SRB, 48 h, read-out: Anti-proliferative IC50, MCF-7
Experimental: as §1, §2

[13] = tested on: cis-platinum resistant human lung cancer cell A549/CDDP; assay: SRB anti-proliferative assay, drug-resistant A549/CDDP; format: cell-based; conditions: cis-platinum resistant A549/CDDP, SRB, read-out: Anti-proliferative IC50, A549/CDDP
Experimental: as §1, §2, §3

IC50 [1]	IC50 [2]	IC50 [3]	IC50 [4]	IC50 [5]	IC50 [7]	IC50 [8]	IC50 [9]	IC50 [10]	IC50 [11]	IC50 [12]	IC50 [13]	SMILES	Abnormal events in mitotic phase [6]	Effect on filiform structure of microtubule ([6]; 24 h)	Automatic re-assembly (polymerization) of tubulin into microtubule after ice incubation ([6]; ice 1 h then 37° C. 0-15 min)
2 nM	17 nM	190 nM	16 nM	11 nM	487 nM	57 nM	14 nM	12 nM	13 nM	65 nM	121 nM	COc1ccc(/C=C/C(=O)c2ccccc2-c2cccc(F)c2)cc1O [compound 3, (E)-1-(3′-Fluoro[1,1′-biphenyl]-2-yl)-3-(3-hydroxy-4-methoxyphenyl)prop-2-en-1-one]	multipolarization of spindle and multinucleation	microtubule depolymerized to form discreet tublin	obviously inhibited
24 nM	83 nM	227 nM	63 nM	70 nM	3410 nM	84 nM	30 nM	41 nM	63 nM	40 nM	74 nM	COc1ccc(/C=C/C(=O)c2ccccc2-c2ccc(F)cc2)cc1B(O)O [compound 1, (E)-(5-(3-(4′-Fluoro[1,1′-biphenyl]-2-yl)-3-oxoprop-1-en-1-yl)-2-methoxyphenyl)boronic acid]	–	–	–
